Measurements as given in patent publication US8143237B2, “Anti-cancer drugs, and uses relating for malignant melanoma and other cancers” (Kasina Laila Innova Pharmaceuticals Private Limited, priority 2009, dated 2012).
Values after ≈ are worked out from the molar mass of the structure shown. “Also recorded” adds a separate entry of the source. Read-outs that look alike come from different tables or passages of the source.

Experiments:
[1] = tested on: HS.531.sk normal human skin epithelial cells; format: cell-based; conditions: 3 days
Procedure: (§1) MTT [3-(4,5-dimethylthiazol-2-yl)-2,5-diphenyltetrazolium bromide] incorporation based cell proliferation assay was performed using standard procedure. The cytotoxic efficacies of the various selenopheno triazene compounds (compounds 1 to 16) was evaluated in both human malignant melanoma A375 cells and mouse malignant melanoma B16 F0 cells by MTT cell proliferation assay kit (Roche Applied Sciences, Germany). The assay was carried out according to the instruction provided by the vendor. Briefly, equal numbers of cells was plated in 96-well flat-bottomed plates and were incubated with both DTIC and the test compounds (compounds 1 to 16) at various concentrations for a period of three days. Vehicle control culture wells received only a maximum of 0.5% DMSO. Thereafter, 0.5 mg/ml of MTT reagent was added to each well and the microplate was incubated further for 4 h at 37° C. in presence of 5% CO2. Finally, the cells were solubilized by adding solubilizing solution and allowed to incubate at 37° C. overnight. After complete solubilization of the formazan crystals, the absorbance was read at 540 nm in a microplate reader (BioRad, USA). The results (mean OD±SD) obtained from quadruplicate wells were used in calculation to determine the inhibition of cell proliferation (50% of inhibitory concentration, IC50) of the test compounds (compounds 1 to 16) (Table 1).
Next, to check whether the Compound 1 can selectively kill the melanoma cells without or minimally affecting the normal cells, we assessed the comparative efficacy of the Compound 1 and DTIC on cell growth inhibition of HS.531.sk normal human skin epithelial cells. The growth inhibitory effect of the test compound and DTIC was assessed by MTT proliferation assay as described earlier (Example 17). The comparative efficacies of Compound 1 and DTIC in inhibiting the normal skin epithelial cell growth are depicted in FIG. 2.

malignant melanoma = conditions: single-agent, malignant melanoma patients; cited from earlier work
A549 lung tumor cells = test: MTT based cell proliferation assay, A549; conditions: Homo sapiens, read-out: Anti-tumor growth potential (IC50) in A549
Procedure: as §1, with “Finally, the cells were solubilized by adding solubilizing solution and allowed to incubate at 37° C. overnight.” left out, “The results (mean OD±SD) obtained from quadruplicate wells were used in calculation to determine the inhibition of cell proliferation (50% of inhibitory concentration, IC50) of the test compounds (compounds 1 to 16) (Table 1).” left out
(§2) Anti-tumor growth potential of Compound 1 and DTIC were evaluated in various human tumor cells such as A549 lung tumor cells, DU145 prostate tumor cells, HT29 colon cancer cells and MCF-7 (ER^+) breast tumor cells in vitro, by using MTT based cell proliferation assay as described earlier (example 17). […]

[2] = tested on: MCF-7 (ER+) breast tumor cells; test: MTT based cell proliferation assay, MCF-7; conditions: Homo sapiens, MCF7, read-out: Anti-tumor growth potential (IC50) in MCF-7
Procedure: as §1, with “Finally, the cells were solubilized by adding solubilizing solution and allowed to incubate at 37° C. overnight.” left out, “The results (mean OD±SD) obtained from quadruplicate wells were used in calculation to determine the inhibition of cell proliferation (50% of inhibitory concentration, IC50) of the test compounds (compounds 1 to 16) (Table 1).” left out
as §2

human plasma protein = conditions: at therapeutic concentrations; cited from earlier work
[3] = tested on: Human umbilical vein endothelial cells (HUVEC); test: In vitro endothelial capillary tube formation assay; format: cell-based; conditions: 16 h
Procedure: In vitro capillary formation assay was performed with Human umbilical vein endothelial cells (HUVEC), cultured on 10 mg/ml basement membrane extract (BME-Cultrex®, R&D Systems, USA) bed. The protocol of in vitro endothelial tube formation assay was the same as described earlier with some modifications (Diana G et al., J. Cell Biol. 1995; Volume 130: 207-215.). Briefly, four hundred microliters of Cultrex was coated at 4° C. in each well of 24-well culture plate and allowed to gel at 37° C. for 1 h. HUVECs were plated at a density of 7.5×10^4 cells per well with 400 μl of DMEM supplemented with 10% fetal bovine serum and 4.5 g/l D-glucose. The cells were then treated with either DTIC or Compound 1 at desired concentration as indicated for 16 hours. Vehicle control cultures received only 0.1% DMSO. Pictures were taken under a Nikon Eclipse TS 100 microscope equipped with a Nikon Coolpix camera.

[4] = cited from earlier work
[5] = tested on: A375 human melanoma xenograft; test: A375 human melanoma xenograft model of nu/nu BALB/c nude mice; format: in vivo, mouse; conditions: 25 mg/kg daily intra-peritoneal, twenty one days, tumor volume, p=0.04322
Procedure: To further substantiate the anti-melanoma efficacy of the Compound 1, this compound was tested for its anti-melanoma efficacy in A375 human melanoma xenograft model of nu/nu BALB/c nude mice. The animals of 6-8 weeks age (body weight 18-22 g) were used in this study. Animals study protocols were approved by Institutional Ethics Committee (IAEC). All the studies were performed in compliance with the Committee for the Purpose of Control and Supervision of Experiments on Animals (CPCSEA) guidelines and OECD guidelines. Animals were allowed free access to sterile standard rodent diet and provided with charcoal filtered and UV exposed water ad libitum. The animals were housed in a sterile room and were located individually in ventilated cages. The room was maintained at a controlled temperature (24-26° C.), humidity (45-70%), and 12 h/12 h of light/dark cycle.
To induce the melanoma tumor, sub-confluent A375 human melanoma cells were harvested by brief trypsinization and 1×10^6 cells were injected subcutaneously in 0.2 ml phosphate-buffered saline. Drug treatment was started after development of palpable tumors (6-7 days after implantation of the cells). At this point the tumor take rate was 100%. […] After twenty one days of treatment, the animals were sacrificed by CO2 inhalation and tumors growth was measured by the following formula (Friedman H S et al., Mol Cancer Ther 2002; 1:943-948). […]

[6] = tested on: Human umbilical vein endothelial cells (HUVEC); test: Endothelial cell migration assay; format: cell-based; conditions: 5 and 10 μg/ml, 18 h
Procedure: The methodology of endothelial cell migration assay was essentially the same as described earlier with some modifications (Sengupta, K et al., Mol. Cancer. Res. 2004; 2: 150-158.). FALCON™ Cell Culture inserts (Becton Dickinson, USA) with 8 μm-pores in their PET membrane was coated with 0.1 mg/ml of collagen. Human umbilical vein endothelial cells (HUVEC) were added to the cell culture inserts (Becton Dickinson) at a density of 5×10^4 cells/insert. Cells were allowed to migrate through the insert for 18 h in presence of different concentrations of either DTIC or Compound 1. The control culture containing migration assembly received only 0.1% DMSO. […] The membranes of the inserts were then mounted on glass slides. Cells migrated through the membrane pores were counted in 20 random fields under Nikon Eclipse TS 100 microscope at 20× objective.

[7] = patient with renal and hepatic dysfunctions

## CN(C)N=Nc1[nH]cnc1C(N)=O [DTIC, 5-(3,3-dimethyl-1-trizeno)-imidazole-4-carboxamide, reference compound]
[1]; 25 μg/ml
  Growth inhibition of HS.531.sk normal human skin epithelial cells: 34.58%
[1]; 50 μg/ml
  Growth inhibition of HS.531.sk normal human skin epithelial cells: 43.46%
Malignant melanoma
  Complete responses: less than 5 % of patients
A549 lung tumor cells
  IC50: 95 µg/mL (≈ 521 µM)
[2]
  IC50: 85.1 µg/mL (≈ 467 µM)
Human plasma protein
  Binding to human plasma protein: not appreciably bound
[3]; 100 μg/ml
  Endothelial capillary-like tube formation: promoted capillary formation; also recorded: could not inhibit the endothelial capillary formation
[4]; biphasic disappearance
  Initial half life of disappearance from plasma: 19 min
[4]; in six hours
  Average cumulative excretion of unchanged drug in the urine: 40 % of the injected dose
[4]; [7]
  Initial half life of disappearance from plasma: 55 min
  Terminal half life of disappearance from plasma: 432 min

## Cc1[se]c(C(N)=O)cc1/N=N/N(C)C [Compound 1, 4-[(dimethylamino)diazenyl]-5-methylselenophene-2-carboxamide]
[1]; 25 μg/ml
  Growth inhibition of HS.531.sk normal human skin epithelial cells: 2.33%
[1]; 50 μg/ml
  Growth inhibition of HS.531.sk normal human skin epithelial cells: 23.83%
[5]
  Inhibition of melanoma tumor growth, A375 human melanoma xenograft model of nude mice: 46.52%
other
  melting point: 170 to 172 °C
[6]
  Migration of human endothelial cells (HUVEC): significant inhibition of migration; also recorded: inhibited endothelial cell migration
A549 lung tumor cells
  IC50: 7.68 µg/mL (≈ 29.6 µM)
[2]
  IC50: 7.03 µg/mL (≈ 27.1 µM)
[3]; 5 and 10 μg/ml
  Endothelial capillary-like tube formation: inhibition of capillary formation in a dose dependent manner; also recorded: exhibited anti-angiogenic properties
